These results are taken from PMC1978517, “Novel Decapeptides that Bind Avidly and Deliver Radioisotope to Colon Cancer Cells” (PLoS ONE, 2007).

One data set has as its system Caco-2 cells. Kind of data set: Release and retention of 32P counts after washing and further incubation in complete medium. It counts as cell-based. The protocol:
(§1) The peptide binding, washing and assay experiment described for Figure 2 was then repeated in the seven most avidly binding cell lines using MA5, except that after three washes of medium, 200 ul of complete medium was added to each well and the cells were incubated overnight at 37°C. […] Approximately 88% of MA5 radioactive counts initially retained by the colon cancer cell lines was released into the medium, while approximately 12% of initially retained radioactive counts were retained by cells. The two esophageal cell lines that originally retained large amounts of radioactive counts, QH-TRT and SEG1, retained 39% and 37% of their original counts, respectively, after overnight incubation. Caco-2 cells retained the greatest number of counts, averaging 58,305 cpm in triplicate wells containing 10,000 cells each. This figure represents approximately 5.8 cpm, or 348 counts per hour, per cell (i.e., when extrapolated over a potential 2-week exposure period, equivalent to over 87,000 counts per cell).

For data set [1], the system named is seven avidly binding cell lines (Caco-2, HCT15, HCT116, LoVo, HT29, SEG1, QHTRT). In words: Binding of 32P-labeled decapeptide to cell lines, two hour incubation, scintillation counting. The note with it: two hour incubation with 32P-labeled peptide, seven of the eighteen cell lines. It counts as cell-based.
Experimental: (§2) Assay of the binding of ^32P-labeled decapeptides to cell lines: Cell lines were grown in complete medium containing 10% bovine fetal serum (heat inactivated). In each well of a 96-well plate, 10,000 cells from various cell lines were grown overnight in complete medium. Ten µl of the labeled-peptide in 1 X PBS and 90 µl of complete medium were added to each well and incubated at 37°C at various times of up to two hours. The peptide-medium was removed and one µl added to 100 ul gel loading buffer and counted by scintillation counting for the probe control or run on a polyacrylamide-SDS gel (Biorad).The adherent cells were briefly and gently washed with complete medium three times and some wells were assayed immediately by adding 100 µl of gel loading buffer to each well and run on a gel or counted in a scintillation counter. Other wells had 100 µl complete medium added and incubated for a further time period. Samples were either counted in a liquid scintillation counter or run on polyacrylamide-SDS gels, exposed to x-ray film, and the film developed.
In data set [2] the test system is eleven nonbinding cell lines (HeLa S3, RKO, 1271, A549, KYSE-70, HT1080, 293H, 1459, HEEpiC, T84, SK-BR-3). The data set is described as above. Type of data set: cell-based.
Experimental: as §2
Data set [3] concerns QH-TRT Barrett's esophagus cell line. In words: Release and retention of 32P counts after washing and overnight incubation in complete medium. Type of data set: cell-based. The conditions noted are these: two hour incubation, three washes, overnight at 37°C in complete medium. The method, then: as §1
The subject of another data set is colon cancer cell lines. Described as above. The note with it: two hour incubation, three washes. It counts as cell-based. The protocol: as §1
For data set [4], the system named is seven avidly binding cell lines. The data set is described as above. Type of data set: cell-based. The note with it: all seven avidly binding lines. The protocol: as §1
Data set [5] has as its system SEG1 esophageal adenocarcinoma cell line. The description is as above. Type of data set: cell-based. The conditions noted are these: two hour incubation, three washes, overnight at 37°C in complete medium. The method, then: as §1
In data set [6] the test system is Caco-2 colon adenocarcinoma cell line.
Experimental: as §2
Where [7] appears, read: two hours incubation, three wash steps, overnight incubation in medium.
Setting [8] is: two hour incubation, three washes, 10,000 cells.

For the sequence GSRRASVASA [MA5], the “time course of release of counts (in words)” value in the data set on Caco-2 cells (48-hour time period after two hour incubation and washing, triplicate determinations) is reported as “majority of the total counts released over the 48 hour time period are released by nine hours of incubation”. Moreover, the “counts retained by cells after overnight incubation” value with Caco-2 cells (average of triplicate wells containing 10,000 cells each, two hour incubation, washes, overnight in medium) is on record as 58,305 cpm. Further, the “counts per cell extrapolated over a potential 2-week exposure period” value with Caco-2 cells (extrapolated) is “over 87,000 counts per cell”. Further, the “counts per cell per day, extrapolated” value in the data set with Caco-2 cells (extrapolated from 5.8 cpm per cell) was “over 8,300 counts per cell per day”. Moreover, in the data set with Caco-2 cells (setting [7]), the “originally retained 32P isotope released” value was 88% and the “originally retained 32P isotope retained by cells” value turned out to be 12%. Moreover, the “retention of radioactivity (in words)” value in data set [1] is “very strong retention of radioactivity”. Besides, the “binding (in words)” value in data set [2] (two hour incubation with 32P-labeled peptide, eleven of eighteen cell lines) was “did not bind”. For the same sequence, in data set [2] (setting [8]), the “average 32P counts bound, remaining eleven cell lines along with one blank well” value worked out at 365 cpm; the “mean values of 32P counts bound, blank wells and nonbinding cell lines” value was “less than 550 cpm”. Besides, in data set [3], the “original counts retained after overnight incubation” value was determined as 39%. Also, the “radioactive counts initially retained that were released into the medium” value with colon cancer cell lines (200 ul complete medium, overnight at 37°C) was “Approximately 88%”. Besides, the “initially retained radioactive counts retained by cells” value in the data set with colon cancer cell lines (overnight at 37°C in complete medium) was “approximately 12%”. Also, in data set [4], the “radioactivity released after an overnight incubation” value is on record as 63% to 88. In addition, the “original counts retained after overnight incubation” value in data set [5] is on record as 37%. In data set [6] (Caco-2), the “ratio of cpm retained by Caco-2 to the average of the eleven nonbinding cell lines” value was found to be 818. Besides, in data set [6] (after two-hour incubation), the “share of the total radioactive counts present in the incubation well retained by cells” value is recorded as “approximately 18%”. Also, the “radioactive dose transferred per cell” value in data set [6] (two hour incubation, wash, immediate determination of retained radioactivity) was “over 29 counts per minute per cell”. Besides, the “retention difference between variants (MA2 vs MA5)” value in data set [6] (two hours' incubation, counts bound as percentage of total counts) amounted to 70 fold.
